Source: patent US5821244A, “Condensed nitrogen heterocycles and their use as pesticides, fungicides and antimycotics” (Hoechst Schering AgrEvo GmbH, priority 1993, dated 1998)

Columns and labels:
[1] = tested on: eggs of Diabrotica undecimpunctata; experiment: Activity against freshly deposited eggs of southern corn rootworm; format: in vivo; conditions: 120 h, after 5 days
Description: Freshly deposited eggs of Diabrotica undecimpunctata (southern corn rootworm) were sprayed, on paper filters, with in each case 2 ml of an aqueous suspension of wettable powders (active substance content 250 ppm) and were subsequently observed at room temperature. After 5 days, the eggs were examined for mortality.

[2] = tested on: Plasmopara viticola; experiment: Fungicide test, Plasmopara viticola on grapevine seedlings; format: in vivo; conditions: 500 mg of active substance/l spray mixture; incubation 7 days
Description: Approximately 6 weeks after sowing, grapevine seedlings "Riesling/Ehrenfelder" were treated to runoff point using aqueous suspensions of the compounds according to the invention. After the spray coating had dried on, the plants were inoculated with a zoosporangia suspension of Plasmopara viticola and the dripping wet plants were placed for 4 to 5 hours into a controlled-environment cabinet at 23° C. at a relative atmospheric humidity of 80-90%.
After an incubation time of 7 days in the greenhouse, the plants were returned overnight into the controlled-environment cabinet to stimulate sporulation of the fungus. The disease was then evaluated. The disease level was expressed in % of diseased leaf area in comparison with the untreated, 100% infected control plants.

[3] = tested on: Botrytis cinerea; experiment: Fungicide test, Botrytis cinerea on broad beans; format: in vivo; conditions: 500 mg of active substance/l spray mixture; approximately 1 week after inoculation
Description: Broad beans cv. "Herz Freya" or "[…]" approximately 14 days old, were treated to runoff point with aqueous suspensions of the compounds according to the invention. After the spray coating had dried off, the plants were inoculated with a spore suspension (1.5 million spores/ml) of Botrytis cinerea. The plants were grown on in a controlled-environment cabinet at 20°-22° C. under relative atmospheric humidity of approximately 99%. […] The experiments were evaluated approximately 1 week after inoculation. The disease level of the plants was scored in percent relative to untreated, 100% infected control plants.

[4] = tested on: eggs of the large milkweed bug (Oncopeltus fasciatus); experiment: Ovicidal activity, eggs of large milkweed bug on paper filter disks; format: in vivo; conditions: 168 h, after 7 days
Description: Paper filter disks onto which eggs of the large milkweed bug (Oncopeltus fasciatus) have been placed are treated with in each case 0.5 ml of aqueous dilution of the test formulation. After the coating has dried on, the Petri dish is sealed, and the inside is kept at maximum atmospheric humidity. After the dishes have been kept at room temperature, the ovicidal activity was determined after 7 days.

[5] = tested on: tobacco hornworm (Manduca sexta); experiment: Oral application to larvae (L4) of tobacco hornworm; format: in vivo
Description: Active substances which were dissolved in acetone were applied orally to butterfly larvae (L4) of tobacco hornworm (Manduca sexta). After active substance of Example No. 3 or 8 (2×10^-4 g of a.i./animal) had been applied, a mortality of 100% was found after 48 hours.

[6] = tested on: two-spotted spider mite (Tetranychus urticae); experiment: Acaricide test, two-spotted spider mite on bean plants; format: in vivo; conditions: 168 h, after 7 days, read-out: mortality rate of the mites
Source text: Bean plants (Phaseolus v.) which were heavily infested with the two-spotted spider mite (Tetranychus urticae, full population) were sprayed with the aqueous dilution of a concentrate of wettable powder, containing 250 ppm of the active substance in question. The mortality of the mites was checked after 7 days.

[7] = tested on: whitefly (Trialeurodes vaporariorum); experiment: Insecticide test, whitefly on bean plants; format: in vivo; conditions: 336 h, after 14 days
Source text: Bean plants which were heavily populated with whitefly (Trialeurodes vaporariorum) were sprayed to the beginning of the run-off point using aqueous suspensions of concentrates of wettable powders (250 ppm active substance content). After the plants had been placed in the greenhouse, they were subjected to microscope checks after 14 days, resulting in a 100% mortality in the case of each preparation containing the active substances of Example Nos. 4, 5, 10, 19, 20, 24, 27, 28, 130 and 139.

[8] = tested on: tropical cattle ticks (Boophilus microplus); experiment: In vitro test on tropical cattle ticks, inhibition of oviposition; format: in vivo; conditions: Rhipicephalus microplus, 336 h, immersion five minutes, two weeks after treatment
Description: In vitro test on tropical cattle ticks (Boophilus microplus) The following experimental set-up allowed the effectiveness of the compounds according to the invention against ticks to be confirmed.
To produce a suitable preparation of active substance, the active substances were dissolved to 10% strength (w/v) in a mixture composed of dimethylformamide (85 g), nonylphenolpolyglycol ether (3 g) and ethoxylated castor oil (7 g), and the resulting emulsion concentrates were diluted with water to a test concentration of 500 ppm.
Batches of ten females of the tropical tick Boophilus microplus which had sucked themselves full were immersed for five minutes in these active substance dilutions. The ticks were subsequently dried on paper filters and then attached, with their backs, to an adhesive film-in order to deposit eggs. The ticks were kept in an incubator at 28° C. at an atmospheric humidity of 90%.
As a control, the female ticks were immersed just in water. Two weeks after the treatment, the inhibition of oviposition was used to determine the effectiveness. 100% means that no ticks have deposited eggs, 0 that all ticks have deposited eggs.

[9] = tested on: Spodoptera littoralis; experiment: Insecticide test, Egyptian cotton leafworm larvae (L3); format: in vivo; conditions: 120 h, after 5 days
Description: Spodoptera littoralis (Egyptian cotton leafworm) larvae in the L3 stage were introduced into Petri dishes filled with nutrient medium, and these dishes together with the larvae were sprayed with 2 ml of an aqueous suspension of wettable powder containing 250 ppm (Corresponding to 6000 l of water/ha). After the spray coating had dried on, the Petri dishes were sealed and stored for 5 days at 21° C. After 5 days, the compound of Example No. 28 had caused a mortality of the Spodoptera larvae of 100%.

[10] = tested on: Phytophthora infestans; format: in vivo; conditions: 500 mg of active substance/l spray mixture; approximately 1 week after inoculation
[11] = tested on: Leptosphaeria nodorum; experiment: Fungicide test, Leptosphaeria nodorum on wheat plants; format: in vivo; conditions: 500 mg of active substance/l spray mixture
Description: Wheat plants cv. "Jubilar" in the 2-leaf stage were wetted to runoff point using aqueous suspensions of the preparations according to the invention. […] The plants were grown on in the greenhouse at a relative atmospheric humidity of approximately 90% until the symptoms became visible. The disease level was determined in % of diseased leaf area in comparison with the untreated, 100% infected control plants.

[12] = tested on: Pyrenophora teres; experiment: Fungicide test, Pyrenophora teres on barley plants; format: in vivo; conditions: 500 mg of active substance/l spray mixture; approximately 1 week after inoculation
Description: Barley plants cv. "Igri" in the 2-leaf stage were wetted to runoff point with an aqueous suspension of the compounds according to the invention. […] The infected plants were subsequently grown on in the greenhouse at 25° C. at a relative atmospheric humidity of 80%. The disease level was evaluated approximately 1 week after inoculation. The disease level was determined in % of diseased leaf area in comparison with untreated, 100% infected control plants.

[13] = tested on: Erysiphe graminis; experiment: Fungicide test, Erysiphe graminis (powdery mildew) on barley plants; format: in vivo, Erysiphe graminis f. sp. hordei; conditions: 500 mg of active substance/l spray mixture; applied 24 hours after inoculation; 10 days
Description: Barley plants in the 3-leaf stage were inoculated with large amounts of conidia of powdery mildew of barley (Erysiphe graminis f. sp. hordei) and placed in a greenhouse at 20° C. and a relative atmospheric humidity of 90 to 95%. 24 hours after the inoculation, the plants were wetted uniformly with the abovementioned compounds. After an incubation time of 10 days, the plants were examined for the occurrence of powdery mildew of barley. The disease level was determined in % of diseased leaf area based on untreated, 100% infected control plants.

Structure (SMILES)	disease suppression [3]	mortality at 250 ppm [4] [%]	mortality at 250 ppm [6] [%]	mortality at 250 ppm [7] [%]	other results
CC(C)(C)C1CCC(Nc2ccnc3ccccc23)CC1 (stereo not drawn) [Compound 3]	suppress disease completely	100	–	–	mortality at 250 ppm [1]: 100%; disease suppression [2]: suppress disease completely; mortality at 0.2 mg ([5]; po, 48 h): 100%
CC(C)(C)C1CCC(Oc2ccnc3ccccc23)CC1 (stereo not drawn) [Compound 4]	–	–	100	100	mortality at 250 ppm [1]: 100%
CC(C)(C)[C@H]1CC[C@@H](Nc2ccnc3c(F)cccc23)CC1 [Compound 5]	–	–	–	100	–
CC(C)(C)[C@H]1CC[C@@H](Nc2ccnc3cc(Cl)ccc23)CC1 [Compound 7]	suppress disease completely	–	–	–	disease suppression [2]: suppress disease completely
CC(C)(C)[C@H]1CC[C@@H](Nc2ccnc3cc(C(F)(F)F)ccc23)CC1 [Compound 8]	–	–	–	–	mortality at 0.2 mg ([5]; oral, 2×10^-4 g of a.i./animal, after 48 hours): 100%
CCCC[C@H]1CC[C@@H](Oc2ccnc3ccccc23)CC1 [Compound 10]	–	100	100	100	–
CCC(C)(C)[C@H]1CC[C@@H](Oc2ccnc3ccccc23)CC1 [Compound 14]	–	–	–	–	inhibition at 500 ppm [8]: 100%
CC(C)(C)CC(C)(C)C1CCC(Nc2ccnc3ccccc23)CC1 (stereo not drawn) [Compound 19]	suppress disease completely	100	100	100	disease suppression [2]: suppress disease completely
CC(C)(C)CC(C)(C)[C@H]1CC[C@@H](Oc2ccnc3ccccc23)CC1 [Compound 20]	–	–	100	100	inhibition at 500 ppm [8]: 100%
c1ccc2c(NC3CCC(C4CCCCC4)CC3)ccnc2c1 (stereo not drawn) [Compound 23]	suppress disease completely	100	100	–	–
c1ccc2c(O[C@H]3CC[C@@H](C4CCCCC4)CC3)ccnc2c1 [Compound 24, 4-(4-Cyclohexylcyclohexyloxy)quinoline]	–	–	100	100	–
c1ccc([C@H]2CC[C@@H](Nc3ccnc4ccccc34)CC2)cc1 [Compound 25, 4-(4-Phenylcyclohexylamino)quinoline]	suppress disease completely	–	–	–	disease suppression [2]: suppress disease completely
c1ccc([C@H]2CC[C@H](Nc3ccnc4ccccc34)CC2)cc1 [Compound 26, 4-(4-Phenylcyclohexylamino)quinoline]	suppress disease completely	–	–	–	disease suppression [2]: suppress disease completely
c1ccc([C@H]2CC[C@@H](Oc3ccnc4ccccc34)CC2)cc1 [Compound 27]	–	100	100	100	mortality at 250 ppm [1]: 100%; inhibition at 500 ppm [8]: 100%
Fc1cccc2c(N[C@H]3CC[C@@H](c4ccccc4)CC3)ccnc12 [Compound 28]	–	–	–	100	inhibition at 500 ppm [8]: 100%; mortality at 250 ppm [9]: 100%
CCOc1ccc([C@H]2CC[C@@H](Nc3ccnc4ccccc34)CC2)cc1 [Compound 45]	suppress disease completely	100	–	–	disease suppression [10]: suppress disease completely
Cc1cc(N[C@H]2CC[C@@H](C(C)(C)CC(C)(C)C)CC2)c2ccccc2n1 [Compound 80]	suppress disease completely	–	–	–	–
CCC(C)(C)[C@H]1CC[C@@H](Nc2ccnc3cccnc23)CC1 [Compound 130]	–	100	100	100	mortality at 250 ppm [1]: 100%; disease suppression [2]: suppress disease completely; disease suppression [11]: suppress disease completely
CC(C)(C)CC(C)(C)[C@H]1CC[C@@H](Oc2ccnc3cccnc23)CC1 [Compound 133]	–	–	100	–	–
c1ccc([C@H]2CC[C@@H](Oc3ccnc4cccnc34)CC2)cc1 [Compound 139]	–	100	100	100	disease suppression [12]: suppress disease completely; mortality at 250 ppm [1]: 100%; disease suppression [13]: suppress disease completely
c1ccc([C@H]2CC[C@@H](Nc3ccnc4ncccc34)CC2)cc1 [Compound 208]	–	100	–	–	–
Cc1ccc2c(NC3CCC(C(C)(C)CC(C)(C)C)CC3)ccnc2n1 (stereo not drawn) [Compound 215]	–	100	–	–	–
CCC(C)(C)[C@H]1CC[C@@H](Nc2ncnc3cccnc23)CC1 [Compound 232]	–	–	–	–	mortality at 250 ppm [1]: 100%; disease suppression [2]: suppress disease completely
c1ccc([C@H]2CC[C@@H](Nc3ncnc4ncccc34)CC2)cc1 [Compound 280]	–	100	–	–	–
